{"source": "patent US9695155B2", "about": "“Herbicidal substituted pyrimidinyloxy benzene compounds” (E. I. DU PONT DE NEMOURS AND COMPANY, priority 2013, dated 2017)", "key": {"wild oat": {"system": "wild oat", "experiment": "Test C postemergence", "assay_type": "in vivo, Avena fatua", "how_it_was_run": "(§1)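 Sown in loam/sand → sprayed pre-emergence; or grown to 1–4 leaves in peat mix → sprayed post-emergence. Same solvent/surfactant formulation both ways. Greenhouse 13–15 d. Score 0–100 visual.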"}, "yellow nutsedge [1]": {"system": "yellow nutsedge", "experiment": "Test C postemergence", "assay_type": "in vivo, Cyperus esculentus", "how_it_was_run": "as §1"}, "yellow nutsedge [2]": {"system": "yellow nutsedge", "experiment": "Test C preemergence", "assay_type": "in vivo, Cyperus esculentus", "conditions": "for Nutsedge, Yellow plant response rating: preemergence", "how_it_was_run": "as §1"}, "morningglory [3]": {"system": "morningglory", "experiment": "Test C postemergence", "assay_type": "in vivo, Ipomoea coccinea", "how_it_was_run": "as §1"}, "barnyardgrass": {"system": "barnyardgrass", "experiment": "Test A preemergence", "assay_type": "in vivo, Echinochloa crus-galli", "conditions": "for Plant response rating, Barnyardgrass: 125 g ai/ha; for Barnyardgrass plant response rating: 500 g ai/ha", "how_it_was_run": "(§2)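 Greenhouse pot test, loam/sand soil. Formulation: non-phytotoxic solvent mix plus surfactant. Pre: directed spray onto soil after sowing. Post: plants at 1–2 leaf, 2–10 cm. Rated visually vs untreated controls at ~10 d, 0 (no effect) to 100 (complete control).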"}, "velvetleaf": {"system": "velvetleaf", "experiment": "Test A postemergence", "assay_type": "in vivo, Abutilon theophrasti", "conditions": "0 to 100 scale where 0 is no effect and 100 is complete control; for Plant response rating, Velvetleaf: 500 g ai/ha", "how_it_was_run": "as §2"}, "corn": {"system": "corn", "experiment": "Test C preemergence", "assay_type": "in vivo, Zea mays", "conditions": "for Corn plant response rating: preemergence; for Plant response rating, Corn: Preemergence, 31 g ai/ha, scale 0 to 100, 0 no effect, 100 complete control", "how_it_was_run": "as §1"}, "oilseed rape": {"system": "oilseed rape", "experiment": "Test C preemergence", "assay_type": "in vivo, Brassica napus", "conditions": "for Oilseed Rape plant response rating: preemergence", "how_it_was_run": "as §1"}, "galium": {"system": "galium", "experiment": "Test C preemergence", "assay_type": "in vivo, Galium aparine", "conditions": "for Galium plant response rating: preemergence; for Plant response rating, Galium: Preemergence, 31 g ai/ha, scale 0 to 100, 0 no effect, 100 complete control", "how_it_was_run": "as §1"}, "blackgrass": {"system": "blackgrass", "experiment": "Test C postemergence", "assay_type": "in vivo, Alopecurus myosuroides", "conditions": "for Blackgrass plant response rating / Plant response rating, Blackgrass: scale 0 to 100 (0 no effect, 100 complete control)", "how_it_was_run": "as §1"}, "rice": {"system": "rice", "experiment": "Test B flooded paddy test", "assay_type": "in vivo, Oryza sativa", "conditions": "Flood, 250 g ai/ha; 0 to 100 scale where 0 is no effect and 100 is complete control", "how_it_was_run": "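Greenhouse flooded-pot test: compounds dosed into 3 cm standing water over 2-leaf plants, flood held constant. Rated visually after 13–15 days on 0–100 (complete control = 100); a dash marks no test result.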"}, "kochia": {"system": "kochia", "experiment": "Test C postemergence", "assay_type": "in vivo, Kochia scoparia", "conditions": "for Kochia plant response rating / Plant response rating, Kochia: scale 0 to 100 (0 no effect, 100 complete control); for Kochia plant response rating: 13 to 15 days", "how_it_was_run": "as §1"}, "morningglory [4]": {"system": "morningglory", "experiment": "Test C preemergence", "assay_type": "in vivo, Ipomoea coccinea", "conditions": "for Morningglory plant response rating: preemergence", "how_it_was_run": "as §1"}, "[5]": {"conditions": "125 g ai/ha, postemergence, visual rating, scale 0 to 100 (0 no effect, 100 complete control)"}, "[6]": {"conditions": "Postemergence, 62 g ai/ha, scale 0 to 100 (0 no effect, 100 complete control)"}, "[7]": {"conditions": "16 g ai/ha, scale 0 to 100 (0 no effect, 100 complete control)"}, "[8]": {"conditions": "62 g ai/ha, scale 0 (no effect) to 100 (complete control)"}, "[9]": {"conditions": "125 g ai/ha, scale 0 (no effect) to 100 (complete control)"}, "[10]": {"conditions": "Preemergence, 31 g ai/ha, scale 0 to 100, 0 no effect, 100 complete control"}, "[11]": {"conditions": "0 to 100 scale where 0 is no effect and 100 is complete control"}, "[12]": {"conditions": "125 g ai/ha, postemergence, visual rating"}, "[13]": {"conditions": "16 g ai/ha, postemergence, 0 is no effect, 100 is complete control"}, "[14]": {"conditions": "31 g ai/ha, postemergence, visual rating, scale 0 to 100 (0 no effect, 100 complete control), 13 to 15 days"}}}
{"smiles": "N#Cc1cnn(-c2c(C#N)cccc2Oc2ncc(F)cn2)c1", "note": "[Compound 111]", "values": [{"measurement": "Plant response rating, Oat, Wild", "setting": "wild oat; [5]", "result": 5}, {"measurement": "Plant response rating, Oat, Wild", "setting": "wild oat; [6]", "result": 5}, {"measurement": "Plant response rating, Nutsedge, Yellow", "setting": "yellow nutsedge [1]; [5]", "result": 5}, {"measurement": "Plant response rating, Nutsedge, Yellow", "setting": "yellow nutsedge [1]; [6]", "result": 5}, {"measurement": "Nutsedge, Yellow plant response rating", "setting": "yellow nutsedge [2]; [7]", "result": 0}, {"measurement": "Nutsedge, Yellow plant response rating", "setting": "yellow nutsedge [2]; [8]", "result": 15}, {"measurement": "Nutsedge, Yellow plant response rating", "setting": "yellow nutsedge [2]; [9]", "result": 50}, {"measurement": "Plant response rating, Nutsedge, Yellow", "setting": "yellow nutsedge [2]; [10]", "result": 0}, {"measurement": "Plant response rating, Morningglory", "setting": "morningglory [3]; [5]", "result": 98}, {"measurement": "Plant response rating, Morningglory", "setting": "morningglory [3]; [6]", "result": 80}, {"measurement": "Plant response rating, Barnyardgrass", "setting": "barnyardgrass; [11]", "result": 90}, {"measurement": "Barnyardgrass plant response rating", "setting": "barnyardgrass; 0 to 100 scale, 0 no effect, 100 complete control, approx. 10 days", "result": 100}, {"measurement": "Plant response rating, Velvetleaf", "setting": "velvetleaf", "result": 100}, {"measurement": "Corn plant response rating", "setting": "corn; [7]", "result": 5}, {"measurement": "Corn plant response rating", "setting": "corn; [8]", "result": 5}, {"measurement": "Corn plant response rating", "setting": "corn; [9]", "result": 65}, {"measurement": "Plant response rating, Corn", "setting": "corn", "result": 5}, {"measurement": "Oilseed Rape plant response rating", "setting": "oilseed rape; [7]", "result": 60}, {"measurement": "Oilseed Rape plant response rating", "setting": "oilseed rape; [8]", "result": 98}, {"measurement": "Oilseed Rape plant response rating", "setting": "oilseed rape; [9]", "result": 100}, {"measurement": "Plant response rating, Oilseed Rape", "setting": "oilseed rape; [10]", "result": 90}, {"measurement": "Galium plant response rating", "setting": "galium; [7]", "result": 90}, {"measurement": "Galium plant response rating", "setting": "galium; [8]", "result": 100}, {"measurement": "Galium plant response rating", "setting": "galium; [9]", "result": 75}, {"measurement": "Plant response rating, Galium", "setting": "galium", "result": 100}, {"measurement": "Blackgrass plant response rating", "setting": "blackgrass; 16 g ai/ha, postemergence, visual rating, 13 to 15 days", "result": 0}, {"measurement": "Plant response rating, Blackgrass", "setting": "blackgrass; [12]", "result": 10}, {"measurement": "Plant response rating, Blackgrass", "setting": "blackgrass; Postemergence, 31 g ai/ha, 13 to 15 days", "result": 0}, {"measurement": "Plant response rating, Blackgrass", "setting": "blackgrass; Postemergence, 62 g ai/ha", "result": 5}, {"measurement": "Plant response rating, Rice", "setting": "rice", "result": 0}, {"measurement": "Kochia plant response rating", "setting": "kochia; 16 g ai/ha, postemergence, visual rating", "result": 60}, {"measurement": "Plant response rating, Kochia", "setting": "kochia; [12]", "result": 95}, {"measurement": "Plant response rating, Kochia", "setting": "kochia; Postemergence, 62 g ai/ha", "result": 90}, {"measurement": "Morningglory plant response rating", "setting": "morningglory [4]; [7]", "result": 20}, {"measurement": "Morningglory plant response rating", "setting": "morningglory [4]; [8]", "result": 85}, {"measurement": "Morningglory plant response rating", "setting": "morningglory [4]; [9]", "result": 100}, {"measurement": "Plant response rating, Morningglory", "setting": "morningglory [4]; [10]", "result": 45}]}
{"smiles": "FC(F)(F)c1cnn(-c2c(Cl)cccc2Oc2ncc(Cl)cn2)c1", "note": "[Compound 167]", "values": [{"measurement": "Plant response rating (0 to 100), Oat, Wild", "setting": "wild oat; [13]", "result": 5}, {"measurement": "Oat, Wild plant response rating", "setting": "wild oat; [14]", "result": 25}, {"measurement": "Plant response rating, Oat, Wild", "setting": "wild oat; [5]", "result": 35}, {"measurement": "Plant response rating, Oat, Wild", "setting": "wild oat; [6]", "result": 35}, {"measurement": "Plant response rating (0 to 100), Nutsedge, Yellow", "setting": "yellow nutsedge [1]; [13]", "result": 0}, {"measurement": "Nutsedge, Yellow plant response rating", "setting": "yellow nutsedge [1]; [14]", "result": 0}, {"measurement": "Plant response rating, Nutsedge, Yellow", "setting": "yellow nutsedge [1]; [5]", "result": 20}, {"measurement": "Plant response rating, Nutsedge, Yellow", "setting": "yellow nutsedge [1]; [6]", "result": 5}, {"measurement": "Nutsedge, Yellow plant response rating", "setting": "yellow nutsedge [2]; [7]", "result": 0}, {"measurement": "Nutsedge, Yellow plant response rating", "setting": "yellow nutsedge [2]; [8]", "result": 10}, {"measurement": "Nutsedge, Yellow plant response rating", "setting": "yellow nutsedge [2]; [9]", "result": 60}, {"measurement": "Plant response rating (0 to 100), Morningglory", "setting": "morningglory [3]; [13]", "result": 80}, {"measurement": "Morningglory plant response rating", "setting": "morningglory [3]; [14]", "result": 60}, {"measurement": "Plant response rating, Morningglory", "setting": "morningglory [3]; [5]", "result": 90}, {"measurement": "Plant response rating, Morningglory", "setting": "morningglory [3]; [6]", "result": 98}, {"measurement": "Plant response rating, Barnyardgrass", "setting": "barnyardgrass; [11]", "result": 80}, {"measurement": "Barnyardgrass plant response rating", "setting": "barnyardgrass; [11]", "result": 100}, {"measurement": "Velvetleaf plant response rating", "setting": "velvetleaf; 125 g ai/ha", "result": 100}, {"measurement": "Plant response rating, Velvetleaf", "setting": "velvetleaf", "result": 100}, {"measurement": "Corn plant response rating", "setting": "corn; [7]", "result": 0}, {"measurement": "Corn plant response rating", "setting": "corn; [8]", "result": 25}, {"measurement": "Corn plant response rating", "setting": "corn; [9]", "result": 60}, {"measurement": "Plant response rating, Corn", "setting": "corn", "result": 5}, {"measurement": "Oilseed Rape plant response rating", "setting": "oilseed rape; [7]", "result": 80}, {"measurement": "Oilseed Rape plant response rating", "setting": "oilseed rape; [8]", "result": 90}, {"measurement": "Oilseed Rape plant response rating", "setting": "oilseed rape; [9]", "result": 98}, {"measurement": "Galium plant response rating", "setting": "galium; [7]", "result": 98}, {"measurement": "Galium plant response rating", "setting": "galium; [8]", "result": 100}, {"measurement": "Galium plant response rating", "setting": "galium; [9]", "result": 100}, {"measurement": "Plant response rating, Galium", "setting": "galium", "result": 100}, {"measurement": "Plant response rating (0 to 100), Blackgrass", "setting": "blackgrass; [13]", "result": 0}, {"measurement": "Blackgrass plant response rating", "setting": "blackgrass; 31 g ai/ha, postemergence, visual rating, 13 to 15 days", "result": 5}, {"measurement": "Plant response rating, Blackgrass", "setting": "blackgrass; [12]", "result": 30}, {"measurement": "Plant response rating, Blackgrass", "setting": "blackgrass; Postemergence, 62 g ai/ha", "result": 5}, {"measurement": "Plant response rating, Rice", "setting": "rice", "result": 0}, {"measurement": "Plant response rating (0 to 100), Kochia", "setting": "kochia; [13]", "result": 90}, {"measurement": "Kochia plant response rating", "setting": "kochia; 31 g ai/ha, postemergence, visual rating", "result": 90}, {"measurement": "Plant response rating, Kochia", "setting": "kochia; [12]", "result": 95}, {"measurement": "Plant response rating, Kochia", "setting": "kochia; Postemergence, 62 g ai/ha", "result": 90}, {"measurement": "Morningglory plant response rating", "setting": "morningglory [4]; [7]", "result": 30}, {"measurement": "Morningglory plant response rating", "setting": "morningglory [4]; [8]", "result": 50}, {"measurement": "Morningglory plant response rating", "setting": "morningglory [4]; [9]", "result": 100}]}
